The text below walks through data of US10696671B2, “Imidazo[1,2-A]pyridine derivatives, methods for preparing the same and use thereof” (Jeil Pharmaceutical Co., Ltd., priority 2016, dated 2020).

In the test the target is T1, proton pump (H+/K+-ATPase), porcine gastric vesicles (Sus scrofa, UniProt P19156).
T1 construct: reaction buffer (50 mmol/L Tris-Hepes buffer, pH 6.4) containing porcine gastric vesicles; from tissue; host or cells: porcine gastric mucosa (gastric vesicles prepared by centrifugation)
T1 sequence (P19156 2-1034 limits assumed): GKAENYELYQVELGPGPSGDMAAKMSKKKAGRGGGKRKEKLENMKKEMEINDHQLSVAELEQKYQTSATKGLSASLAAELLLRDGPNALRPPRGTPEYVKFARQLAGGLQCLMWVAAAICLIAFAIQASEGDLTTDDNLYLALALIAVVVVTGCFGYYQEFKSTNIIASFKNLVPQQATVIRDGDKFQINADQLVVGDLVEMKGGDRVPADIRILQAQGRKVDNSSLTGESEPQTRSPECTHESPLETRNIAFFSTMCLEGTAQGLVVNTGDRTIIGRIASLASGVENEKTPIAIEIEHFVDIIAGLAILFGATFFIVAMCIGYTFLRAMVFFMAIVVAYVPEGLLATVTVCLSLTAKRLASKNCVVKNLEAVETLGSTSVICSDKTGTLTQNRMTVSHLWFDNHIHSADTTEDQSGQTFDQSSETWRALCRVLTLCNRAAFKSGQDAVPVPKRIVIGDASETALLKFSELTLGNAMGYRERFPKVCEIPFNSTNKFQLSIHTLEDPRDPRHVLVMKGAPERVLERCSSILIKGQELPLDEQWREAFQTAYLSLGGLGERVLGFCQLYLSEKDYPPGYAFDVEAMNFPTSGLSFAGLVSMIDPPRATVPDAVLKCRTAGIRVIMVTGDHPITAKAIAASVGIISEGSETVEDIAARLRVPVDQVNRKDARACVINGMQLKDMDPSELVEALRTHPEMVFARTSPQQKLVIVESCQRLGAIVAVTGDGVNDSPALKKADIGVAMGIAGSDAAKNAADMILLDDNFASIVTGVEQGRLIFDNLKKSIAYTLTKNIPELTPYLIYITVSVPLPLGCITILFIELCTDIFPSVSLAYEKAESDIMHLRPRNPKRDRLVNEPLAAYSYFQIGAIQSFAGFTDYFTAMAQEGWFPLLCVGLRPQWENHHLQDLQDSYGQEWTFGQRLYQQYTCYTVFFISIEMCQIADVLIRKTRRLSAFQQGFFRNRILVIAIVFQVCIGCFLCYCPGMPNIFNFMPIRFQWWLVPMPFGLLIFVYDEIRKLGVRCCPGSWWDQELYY
T1 sequence (P18434 whole entry partner): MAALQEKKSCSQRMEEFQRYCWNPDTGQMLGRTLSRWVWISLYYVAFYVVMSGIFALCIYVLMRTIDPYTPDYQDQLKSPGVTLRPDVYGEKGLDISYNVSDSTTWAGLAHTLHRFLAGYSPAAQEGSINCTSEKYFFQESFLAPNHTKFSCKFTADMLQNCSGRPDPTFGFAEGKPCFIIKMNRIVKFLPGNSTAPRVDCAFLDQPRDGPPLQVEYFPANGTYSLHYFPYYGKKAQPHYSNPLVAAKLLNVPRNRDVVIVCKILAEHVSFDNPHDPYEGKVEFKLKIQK
Put plainly: Inhibitory effects against proton pump (H+/K+-ATPase) activity, malachite green phosphate assay. It counts as biochemical. Conditions: pH 6.4, 37° C., K+-dependent activity. The procedure: Test Example 1: Preparation of Gastric Vesicles
Gastric vesicles used in the experiment were prepared by separation from porcine gastric mucosa according to a centrifugation method [Saccomani G, et al., A Nonelectrogenic H^+ Pump in Plasma Membranes of Hog Stomach, J Biol Chem., 1976, 251 (23), 7690-8]. Next, the protein content of the gastric vesicles was quantified using a bicinchoninic acid kit [Smith P K, et al., Measurement of protein using bicinchoninic acid, Anal Biochem., 1985, 150 (1), 76-85)].
Test Example 2: Measurement of Inhibitory Effects Against Proton Pump (H^+/K^+-ATPase) Activity
The inhibitory effects of the compounds against proton pump activity were calculated based on the pump activity determined in the presence of K^+ ions excluding the pump activity determined in the absence of K^+ ions. The inhibitory effects against proton pump activity were measured in 96-well plates, and all reactions were performed with a reaction volume of […] at 37° C. Specifically, 10 μm of valinomycin and each concentration of each compound were pre-incubated in a reaction buffer (50 mmol/L Tris-Hepes buffer, pH 6.4) containing porcine gastric vesicles for 15 minutes. For negative and positive control groups, 1% DMSO was added to buffer, and for test groups, 1% DMSO and a dilution of each concentration of each compound were added. Next, 0.2 mmol/L of adenosine triphosphate (ATP) was added to the reaction buffer and incubated at 37° C. for 40 minutes. After completion of the incubation, a malachite green solution was added to the reaction buffer and incubated for 30 minutes, and the amount of inorganic phosphate in the reaction buffer was measured by colorimetry using a malachite green phosphate assay Kit (Bioassay Systems). For colorimetry, the OD (optical density) at 620 nm was measured using a microplate reader [Synergy H4, hybrid multimode microplate reader, BioTek]. The percent inhibition of proton pump (H^+/K^+-ATPase) was determined based on the OD value of the control group and the OD values of various concentrations of the test compounds, and the IC50 of each test compound was calculated using the Logistic 4-parameter function of Sigmaplot 8.0 program.
Broadly, the IC50 is the concentration that inhibits the measured activity by half. On to `CC(=O)OC1CN(C(=O)c2cc(NCc3c(C)cccc3C)c3nc(C)c(C)n3c2)C1` [Example 2, 1-{8-[(2,6-dimethylbenzyl)amino]-2,3-dimethylimidazo[1,2-α]pyridine-6-carbonyl}azetidin-3-yl acetate], for which the IC50 was determined as 128 nM.

`COC1CN(C(=O)c2cc(NCc3c(C)cccc3C)c3nc(C)c(C)n3c2)C1` [Example 3, {8-[(2,6-dimethylbenzyl)amino]-2,3-dimethylimidazo[1,2-α]pyridin-6-yl}(3-methoxyazetidin-1-yl)methanone]: the half-maximal inhibitory concentration (IC50) was 90 nM.

For the molecule `CCOC1CN(C(=O)c2cc(NCc3c(C)cccc3C)c3nc(C)c(C)n3c2)C1` [Example 4, {8-[(2,6-dimethylbenzyl)amino]-2,3-dimethylimidazo[1,2-α]pyridin-6-yl}(3-ethoxyazetidin-1-yl)methanone], the IC50 was found to be 93 nM.

As to `COCCOC1CN(C(=O)c2cc(NCc3c(C)cccc3C)c3nc(C)c(C)n3c2)C1` [Example 5, {8-[(2,6-dimethylbenzyl)amino]-2,3-dimethylimidazo[1,2-α]pyridin-6-yl}[3-(2-methoxyethoxy)azetidin-1-yl]methanone], the IC50 stood at 117 nM.

For the molecule `COC(=O)C1CN(C(=O)c2cc(NCc3c(C)cccc3C)c3nc(C)c(C)n3c2)C1` [Example 10, methyl 1-{8-[(2,6-dimethylbenzyl)amino]-2,3-dimethylimidazo[1,2-α]pyridine-6-carbonyl}azetidine-3-carboxylate], the IC50 is 48 nM.

Regarding `COCC1CN(C(=O)c2cc(NCc3c(C)cccc3C)c3nc(C)c(C)n3c2)C1` [Example 12, {8-[(2,6-dimethylbenzyl)amino]-2,3-dimethylimidazo[1,2-α]pyridin-6-yl}[3-(methoxymethyl)azetidin-1-yl]methanone], the IC50 came out at 65 nM.

In the case of `Cc1cccc(C)c1CNc1cc(C(=O)N2CC(F)(CO)C2)cn2c(C)c(C)nc12` [Example 13, {8-[(2,6-dimethylbenzyl)amino]-2,3-dimethylimidazo[1,2-α]pyridin-6-yl}[3-fluoro-3-(hydroxymethyl)azetidin-1-yl]methanone], the IC50 turned out to be 119 nM.

As for `Cc1cccc(C)c1CNc1cc(C(=O)N2CC(C)(CO)C2)cn2c(C)c(C)nc12` [Example 14, {8-[(2,6-dimethylbenzyl)amino]-2,3-dimethylimidazo[1,2-α]pyridin-6-yl}[3-(hydroxymethyl)-3-methylazetidin-1-yl]methanone], the IC50 worked out at 104 nM.

As for `Cc1cccc(C)c1CNc1cc(C(=O)N2CC(C(C)O)C2)cn2c(C)c(C)nc12` (stereo not drawn) [Example 15, {8-[(2,6-dimethylbenzyl)amino]-2,3-dimethylimidazo[1,2-α]pyridin-6-yl}[3-(1-hydroxyethyl)azetidin-1-yl]methanone], the IC50 worked out at 72 nM.

On to `Cc1cccc(C)c1CNc1cc(C(=O)N2CC(C(C)(C)O)C2)cn2c(C)c(C)nc12` [Example 16, {8-[(2,6-dimethylbenzyl)amino]-2,3-dimethylimidazo[1,2-α]pyridin-6-yl}[3-(2-hydroxypropan-2-yl)azetidin-1-yl]methanone], for which the IC50 stood at 122 nM.

For `Cc1cccc(C)c1CNc1cc(C(=O)N2CCC2CO)cn2c(C)c(C)nc12` (stereo not drawn) [Example 17, {8-[(2,6-dimethylbenzyl)amino]-2,3-dimethylimidazo[1,2-α]pyridin-6-yl}[2-(hydroxymethyl)azetidin-1-yl]methanone], the IC50 came to 180 nM.

With `CC(=O)C1CN(C(=O)c2cc(NCc3c(C)cccc3C)c3nc(C)c(C)n3c2)C1` [Example 18, 1-{1-[8-({2,6-dimethylbenzyl}amino)-2,3-dimethylimidazo[1,2-α]pyridine-6-carbonyl]azetidin-3-yl}ethanone], the IC50 came out at 140 nM.

With `Cc1cccc(C)c1CNc1cc(C(=O)N2CC(S(C)(=O)=O)C2)cn2c(C)c(C)nc12` [Example 19, {8-[(2,6-dimethylbenzyl)amino]-2,3-dimethylimidazo[1,2-α]pyridin-6-yl}[3-(methylsulfonyl)azetidin-1-yl]methanone], the IC50 amounted to 117 nM.

As to `Cc1cccc(C)c1CNc1cc(C(=O)N2CC(CCO)C2)cn2c(C)c(C)nc12` [Example 20, {8-[(2,6-dimethylbenzyl)amino]-2,3-dimethylimidazo[1,2-α]pyridin-6-yl}[3-(2-hydroxyethyl)azetidin-1-yl]methanone], the IC50 is 46 nM.

Consider `Cc1cccc(C)c1CNc1cc(C(=O)N2CC3(CNC3)C2)cn2c(C)c(C)nc12` [Example 21, {8-[(2,6-dimethylbenzyl)amino]-2,3-dimethylimidazo[1,2-α]pyridin-6-yl}(2,6-diazaspiro[3.3]heptan-2-yl)methanone], for which the IC50 was found to be 600 nM.

For the molecule `Cc1cccc(C)c1CNc1cc(C(=O)N2CC3(COC3)C2)cn2c(C)c(C)nc12` [Example 22, {8-[(2,6-dimethylbenzyl)amino]-2,3-dimethylimidazo[1,2-α]pyridin-6-yl}(2-oxa-6-azaspiro[3.3]heptan-6-yl)methanone], the IC50 turned out to be 79 nM.

`Cc1ccccc1CNc1cc(C(=O)N2CC(O)C2)cn2c(C)c(C)nc12` [Example 23, {2,3-dimethyl-8-[(2-methylbenzyl)amino]imidazo[1,2-α]pyridin-6-yl}(3-hydroxyazetidin-1-yl)methanone]: the IC50 amounted to 374 nM.

Turning to `Cc1cc(F)ccc1CNc1cc(C(=O)N2CC(O)C2)cn2c(C)c(C)nc12` [Example 27, {8-[(4-fluoro-2-methylbenzyl)amino]-2,3-dimethylimidazo[1,2-α]pyridin-6-yl}(3-hydroxyazetidin-1-yl)methanone], the IC50 was found to be 135 nM.

In the case of `Cc1cc(F)ccc1CNc1cc(C(=O)N2CCC2)cn2c(C)c(C)nc12` [Example 28, azetidin-1-yl {8-[(4-fluoro-2-methylbenzyl)amino]-2,3-dimethylimidazo[1,2-α]pyridin-6-yl}methanone], the IC50 amounted to 103 nM.

Regarding `Cc1cc(F)ccc1CNc1cc(C(=O)N2CC(F)C2)cn2c(C)c(C)nc12` [Example 29, {8-[(4-fluoro-2-methylbenzyl)amino]-2,3-dimethylimidazo[1,2-α]pyridin-6-yl}(3-fluoroazetidin-1-yl)methanone], the IC50 was found to be 645 nM.

Turning to `Cc1cc(F)ccc1CNc1cc(C(=O)N2CC(C)C2)cn2c(C)c(C)nc12` [Example 30, {8-[(4-fluoro-2-methylbenzyl)amino]-2,3-dimethylimidazo[1,2-α]pyridin-6-yl}(3-methylazetidin-1-yl)methanone], the IC50 was determined as 271 nM.

For the molecule `Cc1cc(F)ccc1CNc1cc(C(=O)N2CC(C)(O)C2)cn2c(C)c(C)nc12` [Example 31, {8-[(4-fluoro-2-methylbenzyl)amino]-2,3-dimethylimidazo[1,2-α]pyridin-6-yl}(3-hydroxy-3-methylazetidine-1-yl)methanone], the IC50 was 662 nM.

On to `COC1(C)CN(C(=O)c2cc(NCc3c(C)cccc3C)c3nc(C)c(C)n3c2)C1` [Example 32, {8-[(2,6-dimethylbenzyl)amino]-2,3-dimethylimidazo[1,2-α]pyridin-6-yl}(3-methoxy-3-methylazetidin-1-yl)methanone], for which the IC50 was determined as 187 nM.

Take `Cc1cc(F)cc(C)c1CNc1cc(C(=O)N2CCC2)cn2c(C)c(C)nc12` [Example 35, azetidin-1-yl{8-[(4-fluoro-2,6-dimethylbenzyl)amino]-2,3-dimethylimidazo[1,2-α]pyridin-6-yl}methanone]: the IC50 was found to be 16 nM.

As for `Cc1cc(F)cc(C)c1CNc1cc(C(=O)N2CC(C)C2)cn2c(C)c(C)nc12` [Example 37, {8-[(4-fluoro-2,6-dimethylbenzyl)amino]-2,3-dimethylimidazo[1,2-α]pyridin-6-yl}(3-methylazetidin-1-yl)methanone], the IC50 turned out to be 21 nM.

On to `Cc1cc(F)cc(C)c1CNc1cc(C(=O)N2CC(C)(O)C2)cn2c(C)c(C)nc12` [Example 38, {8-[(4-fluoro-2,6-dimethylbenzyl)amino]-2,3-dimethylimidazo[1,2-α]pyridin-6-yl}(3-hydroxy-3-methylazetidin-1-yl)methanone], for which the IC50 came out at 41 nM.

For `COCC1CN(C(=O)c2cc(NCc3c(C)cc(F)cc3C)c3nc(C)c(C)n3c2)C1` [Example 40, {8-[(4-fluoro-2,6-dimethylbenzyl)amino]-2,3-dimethylimidazo[1,2-α]pyridin-6-yl}[3-(methoxymethyl)azetidin-1-yl]methanone], the IC50 came out at 134 nM.

With `Cc1ccc(F)c(C)c1CNc1cc(C(=O)N2CC(O)C2)cn2c(C)c(C)nc12` [Example 41, {8-[(3-fluoro-2,6-dimethylbenzyl)amino]-2,3-dimethylimidazo[1,2-α]pyridin-6-yl}(3-hydroxyazetidin-1-yl)methanone], the IC50 came to 149 nM.
